Results published in PubChem BioAssay (NCI).
Several values for one entry are separate records, joined by “and”; a condition that tells them apart may be missing. Identical values can stand only once.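 Step 1: Grow cells in 96-well plates. Step 2: Expose to compound for 48 hours at 5 concentrations. Step 3: Interpolate endpoints linearly; if unreached, use highest concentration. At the GI50, growth is halved. Definition used: TGI = concentration required for complete inhibition of growth.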

Tests used:
Experiment in all cases: growth of human tumour cells (NCI), 48 h
BT-549 breast = system: BT-549 breast
DU-145 prostate = system: DU-145 prostate
HOP-62 NSCLC = system: HOP-62 NSCLC
MCF7 breast = system: MCF7 breast
MOLT-4 leukemia = system: MOLT-4 leukemia
NCI-H23 lung = system: NCI-H23 lung
NCI/ADR-RES ovarian = system: NCI/ADR-RES ovarian
OVCAR-4 ovarian = system: OVCAR-4 ovarian
SK-MEL-2 melanoma = system: SK-MEL-2 melanoma
U251 CNS = system: U251 CNS

Cc1c(N(C(=O)c2cc(-c3cc(Cl)ccc3C(=O)N3Cc4ccccc4C[C@H]3CN3CCOCC3)n(C)c2C)c2ccc(O)cc2)cc(C#N)n1C
GI50 (BT-549 breast): 6.41 µM | TGI (BT-549 breast): 26.5 µM | GI50 (DU-145 prostate): 32.5 µM | TGI (DU-145 prostate): > 100 µM | GI50 (HOP-62 NSCLC): 25.8 µM | TGI (HOP-62 NSCLC): > 100 µM | GI50 (MCF7 breast): 23.5 µM | TGI (MCF7 breast): > 100 µM | GI50 (MOLT-4 leukemia): 2.98 µM | TGI (MOLT-4 leukemia): > 100 µM | GI50 (NCI-H23 lung): 35.6 µM | TGI (NCI-H23 lung): > 100 µM | GI50 (NCI/ADR-RES ovarian): 50.6 µM | TGI (NCI/ADR-RES ovarian): > 100 µM | GI50 (OVCAR-4 ovarian): 11.4 µM | TGI (OVCAR-4 ovarian): > 100 µM | GI50 (SK-MEL-2 melanoma): 11.8 µM | TGI (SK-MEL-2 melanoma): 30.7 µM | GI50 (U251 CNS): 18.9 µM | TGI (U251 CNS): > 100 µM

CNC(=O)c1ccc(Nc2nc(OC3CCCC3)c3c(-c4ccc5nc(C)oc5c4)c[nH]c3n2)c(OC)c1
GI50 (BT-549 breast): 2.04 µM | TGI (BT-549 breast): > 100 µM | GI50 (DU-145 prostate): 6.31 µM | TGI (DU-145 prostate): > 100 µM | GI50 (HOP-62 NSCLC): > 100 µM | TGI (HOP-62 NSCLC): > 100 µM | GI50 (MCF7 breast): 0.252 µM | TGI (MCF7 breast): > 100 µM | GI50 (MOLT-4 leukemia): 1.63 µM | TGI (MOLT-4 leukemia): > 100 µM | GI50 (NCI-H23 lung): 4.55 µM | TGI (NCI-H23 lung): > 100 µM | GI50 (NCI/ADR-RES ovarian): 1.71 µM | TGI (NCI/ADR-RES ovarian): > 100 µM | GI50 (OVCAR-4 ovarian): 5.59 µM | TGI (OVCAR-4 ovarian): > 100 µM | GI50 (SK-MEL-2 melanoma): > 51.3 µM | TGI (SK-MEL-2 melanoma): > 100 µM | GI50 (U251 CNS): 15.3 µM | TGI (U251 CNS): > 100 µM

Cc1cc2c(cc1C)[n+](=O)c(C(=O)c1cccs1)c(C(F)(F)F)n2[O-]
GI50 (BT-549 breast): 0.565 µM | TGI (BT-549 breast): 2.53 µM | GI50 (DU-145 prostate): 1.05 µM and 2.15 µM | TGI (DU-145 prostate): 4.12 µM and 6.87 µM | GI50 (HOP-62 NSCLC): 14.6 µM and 2.68 µM | TGI (HOP-62 NSCLC): 50 µM | GI50 (MCF7 breast): 2.31 µM | TGI (MCF7 breast): 12.6 µM | GI50 (MOLT-4 leukemia): 4.39 µM | TGI (MOLT-4 leukemia): 50 µM | GI50 (NCI-H23 lung): 6.25 µM | TGI (NCI-H23 lung): 19.7 µM | GI50 (NCI/ADR-RES ovarian): 6.4 µM and 3.28 µM | TGI (NCI/ADR-RES ovarian): 18.6 µM and 27.2 µM | GI50 (OVCAR-4 ovarian): 6.44 µM and 3.56 µM | TGI (OVCAR-4 ovarian): 50 µM and 10.7 µM | GI50 (SK-MEL-2 melanoma): 15.8 µM and 8.02 µM | TGI (SK-MEL-2 melanoma): 50 µM and 26.3 µM | GI50 (U251 CNS): 6.83 µM and 3.96 µM | TGI (U251 CNS): 25.5 µM and 75.8 µM

O=C1C=CC(=O)N1c1ccc2c(c1)Cc1cc(NC(=O)C(F)(F)F)ccc1-2
TGI (BT-549 breast): 31.6 µM | TGI (DU-145 prostate): 30.5 µM | TGI (HOP-62 NSCLC): 50.7 µM | TGI (MCF7 breast): 34.4 µM | TGI (MOLT-4 leukemia): > 100 µM | TGI (NCI-H23 lung): 32.2 µM | TGI (NCI/ADR-RES ovarian): > 75.7 µM | TGI (OVCAR-4 ovarian): 31.2 µM | TGI (SK-MEL-2 melanoma): 34.2 µM | TGI (U251 CNS): 34 µM

C=C1C(=O)O[C@H]2[C@H]1CC/C(COC(=O)NCCc1c[nH]c3ccccc13)=C\CC[C@@]1(C)O[C@@H]21
GI50 (BT-549 breast): 1.27 µM | TGI (BT-549 breast): 2.82 µM | GI50 (DU-145 prostate): 1.19 µM | TGI (DU-145 prostate): 2.68 µM | GI50 (HOP-62 NSCLC): 5.25 µM | TGI (HOP-62 NSCLC): 19.8 µM | GI50 (MCF7 breast): 0.585 µM | TGI (MCF7 breast): 2.26 µM | GI50 (MOLT-4 leukemia): 1.91 µM | TGI (MOLT-4 leukemia): 6.59 µM | GI50 (NCI-H23 lung): 2.28 µM | TGI (NCI-H23 lung): 6.81 µM | GI50 (NCI/ADR-RES ovarian): 2.5 µM | TGI (NCI/ADR-RES ovarian): 11.8 µM | GI50 (OVCAR-4 ovarian): 2.96 µM | TGI (OVCAR-4 ovarian): 13.1 µM | GI50 (SK-MEL-2 melanoma): 5.53 µM | TGI (SK-MEL-2 melanoma): 20.1 µM | GI50 (U251 CNS): 4.88 µM | TGI (U251 CNS): 17.1 µM

Cc1cc(-c2cc(C)c(O)c(C(C)(C)C)c2)cc(C(C)(C)C)c1O
TGI (BT-549 breast): 27.6 µM and 26.5 µM | TGI (DU-145 prostate): 25.7 µM and 28.5 µM | TGI (HOP-62 NSCLC): 34.5 µM and 31 µM | TGI (MCF7 breast): 16.7 µM and 19.4 µM | TGI (MOLT-4 leukemia): 19.4 µM and 21.5 µM | TGI (NCI-H23 lung): 26.2 µM and 24.7 µM | TGI (NCI/ADR-RES ovarian): 23.5 µM and 28.2 µM | TGI (OVCAR-4 ovarian): 27.6 µM and 23.8 µM | TGI (SK-MEL-2 melanoma): 19.4 µM and 25.8 µM | TGI (U251 CNS): 22.4 µM and 26.4 µM

COc1cc(-c2ccc(-[n+]3nc(-c4ccc([N+](=O)[O-])cc4)nn3-c3ccc([N+](=O)[O-])cc3)c(OC)c2)ccc1-[n+]1nc(-c2ccc([N+](=O)[O-])cc2)nn1-c1ccc([N+](=O)[O-])cc1
GI50 (BT-549 breast): 6.21 µM | TGI (BT-549 breast): 70.8 µM | GI50 (DU-145 prostate): 2.9 µM | TGI (DU-145 prostate): 9.29 µM | GI50 (HOP-62 NSCLC): 1.84 µM | TGI (HOP-62 NSCLC): 4.54 µM | GI50 (MCF7 breast): 1.75 µM | TGI (MCF7 breast): 4.47 µM | GI50 (MOLT-4 leukemia): 2.98 µM | TGI (MOLT-4 leukemia): > 82 µM | GI50 (NCI-H23 lung): 3.76 µM | TGI (NCI-H23 lung): 47.1 µM | GI50 (NCI/ADR-RES ovarian): 26.9 µM | TGI (NCI/ADR-RES ovarian): > 100 µM | GI50 (OVCAR-4 ovarian): 3.56 µM | TGI (OVCAR-4 ovarian): 55.7 µM | GI50 (SK-MEL-2 melanoma): 4.29 µM | TGI (SK-MEL-2 melanoma): 17.9 µM | GI50 (U251 CNS): 10.8 µM | TGI (U251 CNS): 38.7 µM

Cc1ccc(-c2nc3nc(-c4ccc(Cl)cc4)nc(N4CCCNCC4)c3o2)cc1
GI50 (BT-549 breast): 1.9 µM | TGI (BT-549 breast): 3.61 µM | GI50 (DU-145 prostate): 1.95 µM | TGI (DU-145 prostate): 3.59 µM | GI50 (HOP-62 NSCLC): 1.76 µM | TGI (HOP-62 NSCLC): 3.64 µM | GI50 (MCF7 breast): 1.7 µM | TGI (MCF7 breast): 3.39 µM | GI50 (MOLT-4 leukemia): 1.91 µM | TGI (MOLT-4 leukemia): 3.72 µM | GI50 (NCI-H23 lung): 1.83 µM | TGI (NCI-H23 lung): 3.41 µM | GI50 (NCI/ADR-RES ovarian): 2.02 µM | TGI (NCI/ADR-RES ovarian): 3.95 µM | GI50 (OVCAR-4 ovarian): 1.84 µM | TGI (OVCAR-4 ovarian): 3.39 µM | GI50 (SK-MEL-2 melanoma): 2.04 µM | TGI (SK-MEL-2 melanoma): 3.94 µM | GI50 (U251 CNS): 1.85 µM | TGI (U251 CNS): 3.55 µM

O=C(CSc1nc2sc3c(c2c(=O)n1-c1ccccc1)CCCCC3)N/N=C/c1ccc(F)cc1
GI50 (BT-549 breast): 3.66 µM | TGI (BT-549 breast): 17.8 µM | GI50 (DU-145 prostate): 1.24 µM | TGI (DU-145 prostate): 4.3 µM | GI50 (HOP-62 NSCLC): 2.38 µM | TGI (HOP-62 NSCLC): 7.39 µM | GI50 (MCF7 breast): 2.91 µM | TGI (MCF7 breast): 21 µM | GI50 (MOLT-4 leukemia): 9.09 µM | TGI (MOLT-4 leukemia): > 100 µM | GI50 (NCI-H23 lung): 3.29 µM | TGI (NCI-H23 lung): 13.9 µM | GI50 (NCI/ADR-RES ovarian): 2.25 µM | TGI (NCI/ADR-RES ovarian): 6.72 µM | GI50 (OVCAR-4 ovarian): 0.671 µM | TGI (OVCAR-4 ovarian): 2.46 µM | GI50 (SK-MEL-2 melanoma): 14.4 µM | TGI (SK-MEL-2 melanoma): 28.8 µM | GI50 (U251 CNS): 1.93 µM | TGI (U251 CNS): 5.31 µM

Cn1c(Cc2ccccc2)nc2cc3ccccc3cc21
GI50 (BT-549 breast): 21.2 µM | TGI (BT-549 breast): 45.3 µM | GI50 (DU-145 prostate): 26.4 µM | TGI (DU-145 prostate): 66.7 µM | GI50 (HOP-62 NSCLC): 38.3 µM | TGI (HOP-62 NSCLC): > 100 µM | GI50 (MCF7 breast): 38 µM | TGI (MCF7 breast): > 100 µM | GI50 (MOLT-4 leukemia): 32.6 µM | TGI (MOLT-4 leukemia): > 100 µM | GI50 (NCI-H23 lung): 43 µM | TGI (NCI-H23 lung): > 100 µM | GI50 (NCI/ADR-RES ovarian): 24.8 µM | TGI (NCI/ADR-RES ovarian): 68.7 µM | GI50 (OVCAR-4 ovarian): 70.4 µM | TGI (OVCAR-4 ovarian): > 100 µM | GI50 (SK-MEL-2 melanoma): 40.7 µM | TGI (SK-MEL-2 melanoma): > 100 µM | GI50 (U251 CNS): 28.2 µM | TGI (U251 CNS): > 100 µM
